Experiments:
[1] = tested on: NRF2; assay: AREc32 luciferase reporter assay; type: cell-based, human; details: EC2×: concentration required to increase GST ARE Luciferase reporter activity by 2-fold; AREc32 cells, 19 hours
Procedure, shortened: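 AREc32 cells (MCF-7 stably carrying eight rat GSTA2 ARE copies driving firefly luciferase) treated 19 h with compound (0.4–200 nM or 2–1000 nM), triplicate. Luminescence normalized to DMSO as fold-induction; variable-slope fit capped at 50-fold; EC2× = concentration giving 2-fold induction.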

[2] = target: T1, human RORγ (Homo sapiens, UniProt P51449); assay: RORγ assay (GAL4-RORγ hybrid luciferase reporter, inverse-agonist activity); type: cell-based; details: GAL4-RORγ hybrid reporter cells, 23 hours
T1 sequence (P51449 269-508 limits assumed): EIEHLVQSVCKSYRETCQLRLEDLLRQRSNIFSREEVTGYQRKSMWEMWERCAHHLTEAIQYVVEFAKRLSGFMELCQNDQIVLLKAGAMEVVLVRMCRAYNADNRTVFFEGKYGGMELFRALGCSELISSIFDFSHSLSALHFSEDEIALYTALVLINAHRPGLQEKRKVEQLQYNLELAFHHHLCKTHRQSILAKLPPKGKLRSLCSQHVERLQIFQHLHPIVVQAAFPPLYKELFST
Procedure, shortened: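 Human cell line expressing GAL4-DBD/RORγ hybrid with UAS-driven luciferase, treated in triplicate with compound (0.4–200 nM or 2–1000 nM) for 23 h at 37 °C. Luminescence normalized to DMSO; viability measured in parallel by multiplex assay. IC50 for RORγ and viability by variable-slope nonlinear regression.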

[3] = tested on: IFNγ-induced Nitric Oxide production; assay: Nitric oxide production assay in RAW 264.7 mouse macrophages; type: cell-based; details: RAW264.7, suppression of IFNγ-induced NO production normalized to cell viability (WST-1), RAW 264.7, 24 hours IFNγ
Procedure, shortened: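 Cells pre-treated 2 h with compound (0.4-200 nM or 2-1000 nM) in RPMI 1640 + 0.5% FBS, then stimulated with recombinant mouse IFNγ for 24 h at 37 °C. Nitrite measured by Griess reagent, viability by WST-1; IC50 from NO suppression normalized to viability and to DMSO/IFNγ controls.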

[4] = tested on: hIL17; assay: IL-17 release from differentiated primary human T-cells (IL-17A HTRF assay); type: cell-based; details: inhibition of IL-17A levels; primary human CD4+ T cells differentiated into Th17 cells, 46-hour incubation
Procedure, shortened: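 Cryopreserved primary human CD4+ T cells were activated with anti-CD3/CD28 beads and driven to Th17 with TGF-β, IL-6, IL-23 and IL-1β in the presence of compound (2-500 nM or 4-1000 nM) for 46 h at 37° C. Supernatant IL-17A was quantified by HTRF against a standard curve and normalized to DMSO. IC50s came from variable-slope fits, with viability read by CyQuant.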

SMILES	EC2x: concentration giving 2-fold induction of ARE luciferase reporter [1] [nM]	IC50 [2] [nM]	IC50 [3] [nM]	IC50 [4] [nM]
COC(=O)[C@]12CCC(C)(C)C[C@H]1[C@H]1C(=O)C=C3[C@@]4(C)C=C(C#N)C(=O)[C@@](C)(C(N)=O)[C@@H]4CC[C@@]3(C)[C@]1(C)CC2 [Compound T15, methyl (4aS,6aR,6bS,8aR,9S,12aS,14aR,14bS)-9-carbamoyl-11-cyano-2,2,6a,6b,9,12a-hexamethyl-10,14-dioxo-1,3,4,5,6,6a,6b,7,8,8a,9,10,12a,14,14a,14b-hexadecahydropicene-4a(2H)-carboxylate]	612	206	714	65
COC(=O)[C@]12CCC(C)(C)C[C@H]1[C@H]1C(=O)C=C3[C@@]4(C)C=C(C#N)C(=O)[C@@](C)(c5nnc(C)o5)[C@@H]4CC[C@@]3(C)[C@]1(C)CC2 [Compound T16, methyl (4aS,6aR,6bS,8aR,9R,12aS,14aR,14bS)-11-cyano-2,2,6a,6b,9,12a-hexamethyl-9-(5-methyl-1,3,4-oxadiazol-2-yl)-10,14-dioxo-1,3,4,5,6,6a,6b,7,8,8a,9,10,12a,14,14a,14b-hexadecahydropicene-4a(2H)-carboxylate]	>1000	406	615	92
COCC[C@]1(C)C(=O)C(C#N)=C[C@]2(C)C3=CC(=O)[C@@H]4[C@@H]5CC(C)(C)CC[C@]5(C(=O)OC)CC[C@@]4(C)[C@]3(C)CC[C@H]21 [Compound T17, methyl (4aS,6aR,6bS,8aR,9S,12aS,14aR,14bS)-11-cyano-9-(2-methoxyethyl)-2,2,6a,6b,9,12a-hexamethyl-10,14-dioxo-1,3,4,5,6,6a,6b,7,8,8a,9,10,12a,14,14a,14b-hexadecahydropicene-4a(2H)-carboxylate]	64	250	19.5	30
COC(=O)[C@]12CCC(C)(C)C[C@H]1[C@H]1C(=O)C=C3[C@@]4(C)C=C(C#N)C(=O)[C@@](C)(CCO[Si](C)(C)C(C)(C)C)[C@@H]4CC[C@@]3(C)[C@]1(C)CC2 [Compound T18, methyl (4aS,6aR,6bS,8aR,9S,12aS,14aR,14bS)-9-(2-((tert-butyldimethylsilyl)oxy)ethyl)-11-cyano-2,2,6a,6b,9,12a-hexamethyl-10,14-dioxo-1,3,4,5,6,6a,6b,7,8,8a,9,10,12a,14,14a, 14b-hexadecahydropicene-4a(2H)-carboxylate]	585	583	78.5	24
COC(=O)[C@]12CCC(C)(C)C[C@H]1[C@H]1C(=O)C=C3[C@@]4(C)C=C(C#N)C(=O)[C@@](C)(CCO)[C@@H]4CC[C@@]3(C)[C@]1(C)CC2 [Compound T19]	76	233	17.4	15
COC[C@]1(C)C(=O)C(C#N)=C[C@]2(C)C3=CC(=O)[C@@H]4[C@@H]5CC(C)(C)CC[C@]5(C(=O)OC)CC[C@@]4(C)[C@]3(C)CC[C@H]21 [Compound T20]	175	223	15.6	21
COC(=O)C[C@]1(C)C(=O)C(C#N)=C[C@]2(C)C3=CC(=O)[C@@H]4[C@@H]5CC(C)(C)CC[C@]5(C(=O)OC)CC[C@@]4(C)[C@]3(C)CC[C@H]21 [Compound T21, methyl (4aS,6aR,6bS,8aR,9S,12aS,14aR,14bS)-11-cyano-9-(2-methoxy-2-oxoethyl)-2,2,6a,6b,9,12a-hexamethyl-10,14-dioxo-1,3,4,5,6,6a,6b,7,8,8a,9,10,12a,14,14a,14b-hexadecahydropicene-4a(2H)-carboxylate]	269	203	105	33
CC1(C)CC[C@]2(C(=O)NCC(F)(F)F)CC[C@]3(C)[C@H](C(=O)C=C4[C@@]5(C)C=C(C#N)C(=O)[C@@](C)(CO)[C@@H]5CC[C@]43C)[C@@H]2C1 [Compound T22, (4aS,6aR,6bS,8aR,9R,12aS,14aR,14bS)-11-cyano-9-(hydroxymethyl)-2,2,6a,6b,9,12a-hexamethyl-10,14-dioxo-N-(2,2,2-trifluoroethyl)-1,3,4,5,6,6a,6b,7,8,8a,9,10,12a,14,14a,14b-hexadecahydropicene-4a(2H)-carboxamide]	103	256	13.5	50
CC(=O)OC[C@]1(C)C(=O)C(C#N)=C[C@]2(C)C3=CC(=O)[C@@H]4[C@@H]5CC(C)(C)CC[C@]5(C(=O)NCC(F)(F)F)CC[C@@]4(C)[C@]3(C)CC[C@H]21 [Compound T23, ((4R,4aR,6aS,6bR,8aS,12aS,12bR,14bS)-2-cyano-4,6a,6b, 11,11,14b-hexamethyl-3,13-dioxo-8a-((2,2,2-trifluoroethyl)carbamoyl)-3,4,4a,5,6,6a,6b,7,8,8a,9,10,11,12,12a,12b,13,14b-octadecahydropicen-4-yl)methyl acetate]	484	145	150	68
CC1(C)CC[C@]2(C(=O)NCC(F)(F)F)CC[C@]3(C)[C@H](C(=O)C=C4[C@@]5(C)C=C(C#N)C(=O)[C@@](C)(O)[C@@H]5CC[C@]43C)[C@@H]2C1 [Compound T24, (4aS,6aR,6bS,8aR,9S,12aS,14aR,14bS)-11-cyano-9-hydroxy-2,2,6a,6b,9,12a-hexamethyl-10,14-dioxo-N-(2,2,2-trifluoroethyl)-1,3,4,5,6,6a,6b,7,8,8a,9,10,12a,14,14a,14b-hexadecahydropicene-4a(2H)-carboxamide]	406	197	184	37
CCNC(=O)[C@]12CCC(C)(C)C[C@H]1[C@H]1C(=O)C=C3[C@@]4(C)C=C(C#N)C(=O)[C@@](C)(O)[C@@H]4CC[C@@]3(C)[C@]1(C)CC2 [Compound T26, (4aS,6aR,6bS,8aR,9S,12aS,14aR,14bS)-11-cyano-N-ethyl-9-hydroxy-2,2,6a,6b,9,12a-hexamethyl-10,14-dioxo-1,3,4,5,6,6a,6b,7,8,8a,9,10,12a,14,14a,14b-hexadecahydropicene-4a(2H)-carboxamide]	463	292	370	132
CC1(C)CC[C@]2(NC(=O)C(C)(F)F)CC[C@]3(C)[C@H](C(=O)C=C4[C@@]5(C)C=C(C#N)C(=O)[C@@](C)(O)[C@@H]5CC[C@]43C)[C@@H]2C1 [Compound T27, N-((4aS,6aR,6bS,8aR,9S,12aS,14aR,14bS)-11-cyano-9-hydroxy-2,2,6a,6b,9,12a-hexamethyl-10,14-dioxo-1,3,4,5,6,6a,6b,7,8,8a,9,10,12a,14,14a,14b-hexadecahydropicen-4a(2H)-yl)-2,2-difluoropropanamide]	396	410	146	62
